Laboratory results: PubChem BioAssay (NCI)
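Growth conditions: 96-well plates. Treatment: test compound, 48 hours, 5 concentrations. Analysis: linear interpolation between bracketing concentrations; unreached endpoints set to highest concentration. GI50: concentration for 50% inhibition of growth. TGI: total growth inhibition.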

What was measured:
Assay in all cases: inhibition of tumour cell growth, NCI panel, 48 h
[1] = system: SF-539 CNS
[2] = system: OVCAR-4 ovarian
[3] = system: RPMI-8226 leukemia
[4] = system: SW-620 colon
[5] = system: UACC-257 melanoma
[6] = system: HOP-92 NSCLC
[7] = system: KM12 colon
[8] = system: UO-31 renal
[9] = system: NCI/ADR-RES ovarian
[10] = system: T-47D breast
[11] = system: HCT-116 colon
[12] = system: BT-549 breast
[13] = system: SNB-19 CNS
[14] = system: MDA-MB-231 breast
[15] = system: U251 CNS
[16] = system: SF-268 CNS
[17] = system: 786-0 renal
[18] = system: LOX IMVI melanoma
[19] = system: TK-10 renal
[20] = system: RXF 393 renal
[21] = system: SK-MEL-2 melanoma
[22] = system: CCRF-CEM leukemia
[23] = system: SF-295 CNS
[24] = system: UACC-62 melanoma
[25] = system: M14 melanoma
[26] = system: MDA-MB-435
[27] = system: PC-3 prostate
[28] = system: SK-OV-3 ovarian

## Cc1cccc(-n2cnc3cc(C(=O)N4CCCCC4)ccc32)c1
[1]
  GI50: 85.5 µM
  TGI: > 100 µM
[2]
  GI50: 46 µM
  TGI: > 100 µM
[3]
  GI50: > 100 µM
  TGI: > 100 µM
[4]
  GI50: > 100 µM
  TGI: > 100 µM
[5]
  GI50: > 100 µM
  TGI: > 100 µM
[6]
  GI50: 41.4 µM
  TGI: > 100 µM
[7]
  GI50: > 100 µM
  TGI: > 100 µM
[8]
  GI50: 29.8 µM
  TGI: > 100 µM
[9]
  GI50: 37.9 µM
  TGI: > 100 µM
[10]
  GI50: 28 µM
  TGI: 93.1 µM
[11]
  GI50: > 100 µM
  TGI: > 100 µM
[12]
  GI50: 97 µM
  TGI: > 100 µM
[13]
  GI50: 48.8 µM
  TGI: > 100 µM
[14]
  GI50: 92.2 µM
  TGI: > 100 µM
[15]
  GI50: 62.6 µM
  TGI: > 100 µM
[16]
  GI50: > 100 µM
  TGI: > 100 µM
[17]
  GI50: > 100 µM
  TGI: > 100 µM
[18]
  GI50: > 100 µM
  TGI: > 100 µM
[19]
  GI50: > 100 µM
  TGI: > 100 µM
[20]
  GI50: 23.9 µM
  TGI: > 100 µM
[21]
  GI50: > 100 µM
  TGI: > 100 µM
[22]
  GI50: > 100 µM
  TGI: > 100 µM
[23]
  GI50: 65.1 µM
  TGI: > 100 µM
[24]
  GI50: 48 µM
  TGI: > 100 µM
[25]
  GI50: > 100 µM
  TGI: > 100 µM
[26]
  GI50: > 100 µM
  TGI: > 100 µM
[27]
  GI50: > 100 µM
  TGI: > 100 µM
[28]
  GI50: > 100 µM
  TGI: > 100 µM
